Test system: Lgr5
Experiment: Western blot for Lgr5 protein
Type: in vivo, NIH Swiss mice
Settings: individual amino acid by gastric gavage (300 ul OD) for 6 days; 0 Gy and 5 Gy irradiated mice
Experimental: For FIGS. 9-13, the data is from Male NIH Swiss mice (8 weeks) treated with individual amino acids (FIG. 9 (valine); FIG. 10 (tryptophan); FIG. 11 (serine); FIG. 12 (tyrosine); FIG. 13 (threonine)), as by gastric savage (300 ul OD) for a period of 6 days. Animals were sacrificed on day 6 by CO2 euthanasia and tissues collected for resolving the protein by western blot analysis. Lgr5 (100 KD) was used as the marker for crypt stem cell proliferation. These experiments are repeated at least 4 times (data shown) from 4 different mice.
Control groups were given normal saline. […] Mice fasted for 8 hours prior to gavage.
Signals were detected with Odyssey CLX from LI-COR.

## CC(C)[C@H](N)C(=O)O [valine]
  Lgr5 protein levels: increases

Reference: patent US11576884B2, “Amino acid compositions and uses thereof” (University of Florida Research Foundation, Incorporated, priority 2016, dated 2023)
